This note sets out measurements from patent US9902730B2, “Compounds and compositions as toll-like receptor 7 agonists” (NOVARTIS AG, priority 2014, dated 2018).

SMILES strings stand for the structures.

The target in this experiment is T1, human TLR7 (Homo sapiens, UniProt Q9NYK1).
T1 construct: expressed in transfected cells
T1 sequence (Q9NYK1 27-1049): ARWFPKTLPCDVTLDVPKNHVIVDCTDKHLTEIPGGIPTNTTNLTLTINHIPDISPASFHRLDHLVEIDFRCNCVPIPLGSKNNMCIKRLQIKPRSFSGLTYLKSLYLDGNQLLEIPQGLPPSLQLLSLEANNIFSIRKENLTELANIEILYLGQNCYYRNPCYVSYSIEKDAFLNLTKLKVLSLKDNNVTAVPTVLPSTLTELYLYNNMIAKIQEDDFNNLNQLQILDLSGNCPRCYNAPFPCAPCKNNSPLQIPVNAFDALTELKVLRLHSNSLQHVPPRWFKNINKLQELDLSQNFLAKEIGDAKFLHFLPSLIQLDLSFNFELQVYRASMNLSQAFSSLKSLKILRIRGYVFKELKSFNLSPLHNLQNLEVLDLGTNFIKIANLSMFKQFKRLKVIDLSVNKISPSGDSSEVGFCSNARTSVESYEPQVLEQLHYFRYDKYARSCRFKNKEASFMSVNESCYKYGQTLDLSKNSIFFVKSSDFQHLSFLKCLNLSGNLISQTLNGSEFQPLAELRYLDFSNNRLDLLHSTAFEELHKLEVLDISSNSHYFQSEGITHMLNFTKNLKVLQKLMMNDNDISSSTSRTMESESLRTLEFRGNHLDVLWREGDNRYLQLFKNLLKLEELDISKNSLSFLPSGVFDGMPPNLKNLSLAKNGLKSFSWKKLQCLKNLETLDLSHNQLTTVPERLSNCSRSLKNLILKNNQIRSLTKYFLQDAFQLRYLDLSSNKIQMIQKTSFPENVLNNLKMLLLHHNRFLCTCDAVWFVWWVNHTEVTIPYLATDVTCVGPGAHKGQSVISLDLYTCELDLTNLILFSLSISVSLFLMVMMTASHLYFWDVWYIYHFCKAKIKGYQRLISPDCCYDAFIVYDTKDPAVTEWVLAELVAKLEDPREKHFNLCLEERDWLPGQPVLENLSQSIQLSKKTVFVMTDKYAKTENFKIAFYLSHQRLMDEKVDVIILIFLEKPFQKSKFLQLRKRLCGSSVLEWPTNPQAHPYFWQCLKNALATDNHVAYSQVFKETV
Kind of experiment: Reporter gene assay (HEK293 cells with human TLR7 and NF-kB-driven luciferase reporter). The class given is cell-based. Particulars: HEK 293 cells stably transfected with human TLR7 and NF-kB-driven luciferase reporter; 7 hours incubation; EC50 relative to activity of resiquimod set to 100%. Here is the method: Human embryonic kidney 293 (HEK 293) cells were stably transfected with human TLR7 and an NF-kB-driven luciferase reporter vector (pNifty-Luciferase). As a control assay, normal Hek293 transfected with pNifty-Luc were used. Cells were cultured in DMEM supplemented with 2 mM L-glutamine, 10% heart inactivated FBS, 1% penicillin and streptomycin, 2 μg/ml puromycin (InvivoGen #ant-pr-5) and 5 μg/ml of blasticidin (Invitrogen #46-1120). Bright-Glo™ Luciferase assay buffer and substrate were supplied by Promega #E263B and #E264B (assay substrate and buffer respectively). 384 well clear-bottom plates were supplied by Greiner bio-one (#789163-G) and were custom bar-coded plates.
Cells were plated at 25,000 cells/well in 384-well plates in a final volume of 50 μl of media. Cells were allowed to adhere to the plates after overnight (18 hours) culture at 37° C. and 5% CO2. Serially diluted experimental and positive control compounds were then dispensed to each well and incubated for 7 hours at 37° C. and 5% CO2. Cells stimulated with DMSO alone also serve as negative controls. After the incubation, 30 μl of the pre-mix assay buffer and substrate buffer were added to each well according to manufacturer's instructions. The luminescence signal was read on a CLIPR machine with an integration time of 20 seconds per plate.
Dose response curves are generated for each compound and EC50 values were determined as the concentration that gives 50% of the maximal signal.
Turning to `CCCCCNc1nc(N)nc2ccn(Cc3cc(Cc4nnn[nH]4)ccc3OC)c12` [Example 2, 5-(5-((1H-tetrazol-5-yl)methyl)-2-methoxybenzyl)-N4-pentyl-5H-pyrrolo[3,2-d]pyrimidine-2,4-diamine], a half-maximal effect (EC50) was put at 0.05 µM.

In turn, `CCCCCNc1nc(N)nc2ccn(Cc3cc(OCc4nnn[nH]4)ccc3OC)c12` [Example 1, 5-(5-((1H-tetrazol-5-yl)methoxy)-2-methoxybenzyl)-N4-pentyl-5H-pyrrolo[3,2-d]pyrimidine-2,4-diamine] yielded a concentration for a half-maximal effect (EC50) of 0.1 µM.

`CCCCCNc1nc(N)nc2ccn(Cc3ccc(OCC(=O)O)cc3OC)c12` [Example 26, 2-(4-((2-amino-4-(pentylamino)-5H-pyrrolo[3,2-d]pyrimidin-5-yl)methyl)-3-methoxyphenoxy)acetic acid] had an EC50 of 0.4 µM.

`CCCCCNc1nc(N)nc2ccn(Cc3cc(CN4CCC[C@@H]4C(=O)O)ccc3OC)c12` [Example 24, (R)-1-(3-((2-amino-4-(pentylamino)-5H-pyrrolo[3,2-d]pyrimidin-5-yl)methyl)-4-methoxybenzyl)pyrrolidine-2-carboxylic acid] came in with a concentration for a half-maximal effect (EC50) of 0.08 µM.

As for `CCCCCNc1nc(N)nc2ccn(Cc3cc(P(=O)(O)O)ccc3OC)c12` [Example 19, (3-((2-amino-4-(pentylamino)-5H-pyrrolo[3,2-d]pyrimidin-5-yl)methyl)-4-methoxyphenyl)phosphonic acid], it took 0.08 µM to reach a half-maximal effect (EC50).

Compound `CCCCCNc1nc(N)nc2ccn(Cc3cc(CC(=O)O)ccc3OC)c12` [Example 4, 2-(3-((2-amino-4-(pentylamino)-5H-pyrrolo[3,2-d]pyrimidin-5-yl)methyl)-4-methoxyphenyl)acetic acid] displayed an EC50 of 0.05 µM.

As to `CCC[C@@H](CO)Nc1nc(N)nc2ccn(Cc3cc(Cc4nnn[nH]4)ccc3OC)c12` [Example 7, (S)-2-((5-(5-((1H-tetrazol-5-yl)methyl)-2-methoxybenzyl)-2-amino-5H-pyrrolo[3,2-d]pyrimidin-4-yl)amino)pentan-1-ol], the EC50 is 0.8 µM.

The compound `CCCCCNc1nc(N)nc2ccn(Cc3cc(C(C)(C)c4nnn[nH]4)ccc3OC)c12` [Example 11, 5-(5-(2-(1H-tetrazol-5-yl)propan-2-yl)-2-methoxybenzyl)-N4-pentyl-5H-pyrrolo[3,2-d]pyrimidine-2,4-diamine] registered a concentration for a half-maximal effect (EC50) of 0.1 µM.

Regarding `CCCCCNc1nc(N)nc2ccn(Cc3cc(CC[C@@H](O)C[C@@H](O)CC(=O)O)ccc3OC)c12` [Example 18, (3R,5R)-7-(3-((2-amino-4-(pentylamino)-5H-pyrrolo[3,2-d]pyrimidin-5-yl)methyl)-4-methoxyphenyl)-3,5-dihydroxyheptanoic acid], a half-maximal response (EC50) required 0.6 µM.

The compound `CCCCCNc1nc(N)nc2ccn(Cc3ccc(-c4nnn[nH]4)cc3OC)c12` [Example 14, 5-(2-methoxy-4-(1H-tetrazol-5-yl)benzyl)-N4-pentyl-5H-pyrrolo[3,2-d]pyrimidine-2,4-diamine] came in with a concentration giving a half-maximal response (EC50) of 1.4 µM.

On to `CCCCCNc1nc(N)nc2ccn(Cc3cc(-c4nnn[nH]4)ccc3OC)c12` [Example 8, 5-(2-methoxy-5-(1H-tetrazol-5-yl)benzyl)-N4-pentyl-5H-pyrrolo[3,2-d]pyrimidine-2,4-diamine], for which the EC50 is 0.3 µM.

The compound `CCCC[C@@H](CO)Nc1nc(N)nc2ccn(Cc3cc(CC(=O)O)ccc3OC)c12` [Example 5, (S)-2-(3-((2-amino-4-((1-hydroxyhexan-2-yl)amino)-5H-pyrrolo[3,2-d]pyrimidin-5-yl)methyl)-4-methoxyphenyl)acetic acid] returned a concentration giving a half-maximal response (EC50) of 0.4 µM.

`CCCCCNc1nc(N)nc2ccn(Cc3cc(CCC(=O)O)ccc3OC)c12` [Example 21, 3-(3-((2-amino-4-(pentylamino)-5H-pyrrolo[3,2-d]pyrimidin-5-yl)methyl)-4-methoxyphenyl)propanoic acid] showed a concentration giving a half-maximal response (EC50) of 0.4 µM.

On to `CCCC[C@@H](CO)Nc1nc(N)nc2ccn(Cc3cc(-c4nnn[nH]4)ccc3OC)c12` [Example 10, (S)-2-((2-amino-5-(2-methoxy-5-(1H-tetrazol-5-yl)benzyl)-5H-pyrrolo[3,2-d]pyrimidin-4-yl)amino)hexan-1-ol], for which it took 0.2 µM to reach a half-maximal effect (EC50).

Regarding `CCCCCNc1nc(N)nc2ccn(Cc3cc(C(F)(F)c4nnn[nH]4)ccc3OC)c12` [Example 16, 5-(5-(difluoro(1H-tetrazol-5-yl)methyl)-2-methoxybenzyl)-N4-pentyl-5H-pyrrolo[3,2-d]pyrimidine-2,4-diamine], the concentration giving a half-maximal response (EC50) worked out at 0.2 µM.

Consider `CCCCCNc1nc(N)nc2ccn(Cc3cc(C(F)(F)C(=O)O)ccc3OC)c12` [Example 17, 2-(3-((2-amino-4-(pentylamino)-5H-pyrrolo[3,2-d]pyrimidin-5-yl)methyl)-4-methoxyphenyl)-2,2-difluoroacetic acid], for which the half-maximal effective concentration (EC50) was determined as 0.5 µM.

Compound `CCCCCCNc1nc(N)nc2ccn(Cc3cc(-c4nnn[nH]4)ccc3OC)c12` [Example 9, N4-hexyl-5-(2-methoxy-5-(1H-tetrazol-5-yl)benzyl)-5H-pyrrolo[3,2-d]pyrimidine-2,4-diamine] returned an EC50 of 0.8 µM.

`CCCCCNc1nc(N)nc2ccn(Cc3ccc(CN4CCC[C@H]4C(=O)O)cc3OC)c12` [Example 25, (S)-1-(4-((2-amino-4-(pentylamino)-5H-pyrrolo[3,2-d]pyrimidin-5-yl)methyl)-3-methoxybenzyl)pyrrolidine-2-carboxylic acid] came in with an EC50 of 0.008 µM.

On to `CCCCCNc1nc(N)nc2ccn(Cc3cc(CCc4nnn[nH]4)ccc3OC)c12` [Example 15, 5-(5-(2-(1H-tetrazol-5-yl)ethyl)-2-methoxybenzyl)-N4-pentyl-5H-pyrrolo[3,2-d]pyrimidine-2,4-diamine], for which the response was half-maximal at 0.06 µM (EC50).

For the compound `CCCC[C@@H](CO)Nc1nc(N)nc2ccn(Cc3cc(Cc4nnn[nH]4)ccc3OC)c12` [Example 6, (S)-2-((5-(5-((1H-tetrazol-5-yl)methyl)-2-methoxybenzyl)-2-amino-5H-pyrrolo[3,2-d]pyrimidin-4-yl)amino)hexan-1-ol], the response was half-maximal at 0.1 µM (EC50).

Consider `CCCC[C@@H](CO)Nc1nc(N)nc2ccn(Cc3cc(CCC(=O)O)ccc3OC)c12` [Example 23, (S)-3-(3-((2-amino-4-((1-hydroxyhexan-2-yl)amino)-5H-pyrrolo[3,2-d]pyrimidin-5-yl)methyl)-4-methoxyphenyl)propanoic acid], for which a half-maximal response (EC50) required 0.4 µM.

Turning to `CCCC[C@@H](CO)Nc1nc(N)nc2ccn(Cc3cc(C(C)(C)c4nnn[nH]4)ccc3OC)c12` [Example 12, (S)-2-((5-(5-(2-(1H-tetrazol-5-yl)propan-2-yl)-2-methoxybenzyl)-2-amino-5H-pyrrolo[3,2-d]pyrimidin-4-yl)amino)hexan-1-ol], the concentration for a half-maximal effect (EC50) came to 0.2 µM.

`CCCCCNc1nc(N)nc2ccn(Cc3cc(/C=C/C(=O)O)ccc3OC)c12` [Example 22, (E)-3-(3-((2-amino-4-(pentylamino)-5H-pyrrolo[3,2-d]pyrimidin-5-yl)methyl)-4-methoxyphenyl)acrylic acid] registered a half-maximal effective concentration (EC50) of 0.7 µM.

In turn, `CCCCCNc1nc(N)nc2ccn(Cc3cc(Cc4nnn(CC(=O)O)n4)ccc3OC)c12` [Example 3, 2-(5-(3-((2-amino-4-(pentylamino)-5H-pyrrolo[3,2-d]pyrimidin-5-yl)methyl)-4-methoxybenzyl)-2H-tetrazol-2-yl)acetic acid] came in with an EC50 of 0.2 µM.

As for `CCCCCNc1nc(N)nc2ccn(Cc3cc(C(=O)O)ccc3OC)c12` [Example 13, 3-((2-amino-4-(pentylamino)-5H-pyrrolo[3,2-d]pyrimidin-5-yl)methyl)-4-methoxybenzoic acid], a half-maximal response (EC50) required 0.1 µM.

With `CCCCCNc1nc(N)nc2ccn(Cc3cc(P(=O)(O)OC)ccc3OC)c12` [Example 20, methyl hydrogen (3-((2-amino-4-(pentylamino)-5H-pyrrolo[3,2-d]pyrimidin-5-yl)methyl)-4-methoxyphenyl)phosphonate], the response was half-maximal at 0.3 µM (EC50).
